From paper PMC3684613 (PLoS ONE, 2013)
Read-outs that look alike come from different tables or passages of the source.

How the values were obtained:
P. falciparum 3D7 [1] = assay: DAPI stain fluorescent high content imaging assay, P. falciparum 3D7 (confirmatory screen, Avery); conditions: for inhibition of growth at 5 µM: 3D7, read-out: percent_inh @ 5 uM; for EC50: 3D7, read-out: EC50_nM; for inhibition of growth at 2 µM: 3D7, read-out: percent_inh @ 2 uM
P. falciparum 3D7 [2] = tested on: P. falciparum 3D7; design: method as in ChEMBL-NTD; conditions: ref ChEMBL-NTD, cited from earlier work
[3] = values follow the order of the source (GNF; GSK; StJude)
[4] = original screening data, source (GSK, GNF, StJude), several values separated by ';' in order of sources

| Structure (SMILES) | inhibition of growth at 5 µM (P. falciparum 3D7 [1]; Plasmodium falciparum) [%] | EC50 (P. falciparum 3D7 [1]; Plasmodium falciparum) [nM] | other results |
| --- | --- | --- | --- |
| COc1ccccc1N1CCN(C(CNS(=O)(=O)c2ccc(Cl)cc2)c2cccnc2)CC1 (stereo not drawn) [MMV665914] | 93 |  | EC50 (P. falciparum 3D7 [2]; source StJude): 15000 nM |
| O=C(CCl)NCCOc1ccc(Cl)cc1Cl [MMV665927] | 94 | 555 | EC50 (P. falciparum 3D7 [2]; [3]): 538 nM |
| CCOc1cccc(C(=O)Nc2ccc(-c3nc4ccccc4[nH]3)cc2)c1 [MMV019202] |  |  | % inh. At 2.5 uM (P. falciparum 3D7 [1]; 2.5 uM (Comment column; solubility issue at 5 uM)): 97%; EC50 (P. falciparum 3D7 [2]; [4]): 1010 nM |
| COc1cccc(NC(=O)[C@H](C(C)C)n2c(=O)[nH]c3ccccc3c2=O)c1 [MMV665878] | 99 | 139 | EC50 (P. falciparum 3D7 [2]; source GSK (TCMDC id)): 266 nM |
| CC1CCCCN1CCCNC(=O)c1ccc2c(c1)sc1nc(-c3ccc(F)cc3)cn12 (stereo not drawn) [MMV000634] | 98 | 648 | EC50 (P. falciparum 3D7 [2]; source StJude): 634 nM |
| Cc1ccccc1OCCSc1nc2ccc(NC(=O)c3ccccc3)cc2s1 [MMV007577] | 93 | 1120 | EC50 (P. falciparum 3D7 [2]; source GNF (GNF-Pf ids)): 9760 nM |
| Cc1nc2ccccc2c(O)c1CC=C(Cl)Cl [MMV665994] | 89 | 836 | EC50 (P. falciparum 3D7 [2]; source GNF (GNF-Pf ids)): 498 nM |
| O=C(NC1CCCCC1)C(c1cccs1)N(CCc1ccccc1)C(=O)c1ccco1 (stereo not drawn) [MMV666106] | 90 | 1070 | EC50 (P. falciparum 3D7 [2]; source GSK (TCMDC ids)): 1040 nM |
| CC(=O)NCCc1nc2ccccc2n1Cc1ccc(C(C)C)cc1 [MMV007617] | 97 | 1790 | EC50 (P. falciparum 3D7 [2]; source GNF): 764 nM |
| CCOc1ccc2c(c1)CN(Cc1ccc(Cl)cc1)CO2 [MMV000443] | 97 | 439 | EC50 (P. falciparum 3D7 [2]; source StJude (SJ ids)): 1490 nM |
| Cc1cccc(Nc2nc(N)c3ccccc3n2)c1 [MMV019110] |  | 400 | inhibition of growth at 2 µM (P. falciparum 3D7 [1]; Plasmodium falciparum): 97%; EC50 (P. falciparum 3D7 [2]; source GSK (TCMDC id)): 574 nM |
| FC(F)(F)c1cccc(CNC2CCN(CCc3ccccc3)CC2)c1 [MMV665979] | 96 | 685 | EC50 (P. falciparum 3D7 [2]; source GNF): 174 nM |
| O=C1c2ccccc2-c2nnc(-c3ccc(Br)cc3)cc21 [MMV665934] | 99 | 1070 | EC50 (P. falciparum 3D7 [2]; source GNF (GNF-Pf ids)): 2500 nM |
| CN(C)c1ccc(C(O)(c2ccc(N(C)C)cc2)c2ccc(N(C)C)cc2)cc1 [MMV665941] | 96 | 255 | EC50 (P. falciparum 3D7 [2]; source StJude (SJ id)): 620 nM |
| Cc1cc(Nc2ccc(OCc3ccccc3)cc2)nc2cc(O)ccc12 [MMV007181] | 96 | 684 | EC50 (P. falciparum 3D7 [2]; [3]): 73.6 nM |
| Cc1ccc(OCCCCCCNCCO)c(C)c1 [MMV666020] | 49 |  | EC50 (P. falciparum 3D7 [2]; source GNF (GNF-Pf ids)): 1970 nM |
| CCN(CC)c1cc(C)c2cc(NC(=O)c3cccc(OC)c3)ccc2n1 [MMV000498] | 97 |  | EC50 (P. falciparum 3D7 [2]; source StJude): 4770 nM |
| COCCn1c(C)nc2ccccc2c1=O [MMV665904] | 59 |  | EC50 (P. falciparum 3D7 [2]; [4]): 1460 nM |
| CCCCCCc1cc(O)c2c3c(c(=O)oc2c1)CCC(C)C3 (stereo not drawn) [MMV665987] | 96 | 534 | EC50 (P. falciparum 3D7 [2]; source GNF (GNF-Pf ids)): 364 nM |
| O=C(c1ccccc1F)N(Cc1ccc(Cl)cc1)c1ccccn1 [MMV665899] | 59 |  | EC50 (P. falciparum 3D7 [2]; source GSK): 1020 nM |

| Structure (SMILES) | inhibition of growth at 5 µM (P. falciparum 3D7 [1]; Plasmodium falciparum) [%] | EC50 (P. falciparum 3D7 [1]; Plasmodium falciparum) [nM] | other results |
| --- | --- | --- | --- |
| COc1ccccc1C(=O)ON=C(N)Cc1cccc2ccccc12 [MMV666686] | 97 | 814 | EC50 (P. falciparum 3D7 [2]; [3]): 352 nM |
| CC(=O)Nc1nnc(SCc2c(C)cc(C(C)(C)C)cc2C)s1 [MMV020700] | 96 | 871 | EC50 (P. falciparum 3D7 [2]; [4]): 704 nM |
| C=C(C)CCC(C)N1CCC(N2CCC(C(=O)NCCc3ccccc3)CC2)CC1 (stereo not drawn) [MMV666110] | 96 | 1750 | EC50 (P. falciparum 3D7 [2]; source StJude): 4260 nM |
| COc1ccc(C(=O)Nc2ccc(Cl)cc2C(=O)Nc2ccncc2)cc1 [MMV665799] | 93 |  | EC50 (P. falciparum 3D7 [2]; source GSK): 822 nM |
| CCOc1cc(Cl)c(C(C)NC(=O)c2ccccc2)cc1OCC (stereo not drawn) [MMV665800] | 96 | 1370 | EC50 (P. falciparum 3D7 [2]; source GSK): 875 nM |
| CCOc1c(Br)cc(C2C(C(=O)OC)=CN(C)C=C2C(=O)OC)cc1OC [MMV006764] | 96 | 512 | EC50 (P. falciparum 3D7 [2]; source GNF (GNF-Pf ids)): 292 nM |
| O=C(Nc1ccc(Cl)cc1)N1CCN(c2ccc3nncn3n2)CC1 [MMV665917] | 62 |  | EC50 (P. falciparum 3D7 [2]; source GNF): 2060 nM |
| COc1ccc(C2C(C(=O)Nc3cccc(OC)c3)c3ccccc3C(=O)N2C2CCCCC2)cc1 (stereo not drawn) [MMV008455] | 97 | 1180 | EC50 (P. falciparum 3D7 [2]; source GNF (GNF-Pf ids)): 1110 nM |
| Cc1ccccc1OCCSc1nc2ccc(NC(=O)c3cccs3)cc2s1 [MMV007396] | 96 | 697 | EC50 (P. falciparum 3D7 [2]; source GNF (GNF-Pf ids)): 497 nM |
| COCCNC(=O)c1ccc(OC2CCN(Cc3ccc(F)c(F)c3)CC2)c(Cl)c1 [MMV666072] | 91 |  | EC50 (P. falciparum 3D7 [2]; source GSK): 1490 nM |
| CCOc1ccccc1NC(=O)CN1CCN(C(=O)c2ccco2)CC1 [MMV007791] | 83 |  | EC50 (P. falciparum 3D7 [2]; [4]): 5460 nM |
| N=c1c2ccccc2nnn1-c1cccc(C(F)(F)F)c1 [MMV665923] | 83 |  | EC50 (P. falciparum 3D7 [2]; source GNF (GNF-Pf ids)): 134 nM |
| OC(Cn1nnc2ccccc21)Cn1c2ccc(Br)cc2c2cc(Br)ccc21 (stereo not drawn) [MMV666025] | 98 | 1260 | EC50 (P. falciparum 3D7 [2]; source GNF (GNF-Pf ids)): 3370 nM |
| COc1cc(OC)c(N(C)C(=O)c2cc3c(s2)-c2ccccc2S(=O)(=O)C3)cc1Cl [MMV006427] | 100 | 78.2 | EC50 (P. falciparum 3D7 [2]; source GNF (GNF-Pf id)): 113 nM |
| OC(CNC1CCCCC1)Cn1c2ccccc2c2ccccc21 (stereo not drawn) [MMV009063] | 93 | 293 | EC50 (P. falciparum 3D7 [2]; source GNF (GNF-Pf id)): 483 nM; EC50 (P. falciparum 3D7 [2]; source GSK (TCMDC id)): 991 nM |
| O=C(Nc1ccsc1C(=O)NC1CCCCC1)c1ccc(F)cc1 [MMV665939] | 86 |  | EC50 (P. falciparum 3D7 [2]; source GSK): 1210 nM |
| O=C(Nc1cccc(-c2nc3ccccc3[nH]2)c1)c1cccc(NC(=O)c2ccco2)c1 [MMV665883] | 95 | 745 | EC50 (P. falciparum 3D7 [2]; [4]): 360 nM |
| CSc1ccccc1C(=O)Nc1nc(-c2ccccn2)cs1 [MMV001246] | 98 | 206 | EC50 (P. falciparum 3D7 [2]; source StJude (SJ id)): 6820 nM |
| Cc1sc2ncnc(Sc3nc4ccccc4[nH]3)c2c1C [MMV019266] | 100 | 614 | EC50 (P. falciparum 3D7 [2]; [4]): 255 nM |
| Cc1cc(C)c2c(c1)OCN(Cc1ccccc1Cl)C2 [MMV006558] | 98 | 268 | EC50 (P. falciparum 3D7 [2]; source GNF (GNF-Pf id)): 192 nM |

| Structure (SMILES) | inhibition of growth at 5 µM (P. falciparum 3D7 [1]; Plasmodium falciparum) [%] | EC50 (P. falciparum 3D7 [1]; Plasmodium falciparum) [nM] | other results |
| --- | --- | --- | --- |
| CCCCNCC(O)(c1ccc(Cl)cc1)c1ccc(Cl)cc1 [MMV665929] | 97 | 843 | EC50 (P. falciparum 3D7 [2]; source GNF): 720 nM |
| COc1cc(C(=O)Nc2ccc(-c3nc4ccccc4[nH]3)cc2)cc(OC)c1OC [MMV665898] | 95 | 1220 | EC50 (P. falciparum 3D7 [2]; [3]): 982 nM |
| CCOC(=O)c1cnc2ccc(OC)cc2c1NCc1ccccc1 [MMV665813] | 87 |  | EC50 (P. falciparum 3D7 [2]; [3]): 2770 nM |
| COc1ccc(C(=O)NC(c2ccccc2Cl)c2cc(Cl)c3cccnc3c2O)cc1 (stereo not drawn) [MMV666022] | 96 | 830 | EC50 (P. falciparum 3D7 [2]; source GNF (GNF-Pf ids)): 2370 nM |
| Cc1ccc(N2C(=O)C3C(C2=O)C2(c4ccccc4)C(=O)C3(c3ccccc3)C(c3ccccc3)=C2c2ccccc2)cc1 (stereo not drawn) [MMV666062] | 98 | 282 | EC50 (P. falciparum 3D7 [2]; source GSK (TCMDC id)): 869 nM |
| COc1ccc(C(=O)Nc2nonc2-c2ccc(OC)c(OC)c2)cc1Cl [MMV011567] | 92 | 516 | EC50 (P. falciparum 3D7 [2]; source GNF): 1780 nM; EC50 (P. falciparum 3D7 [2]; source GSK): 675 nM |
| CC(=O)c1sc(NC(=O)Nc2ccc(C)cc2C)nc1C [MMV665894] | 64 | 536 | EC50 (P. falciparum 3D7 [2]; [3]): 906 nM |
| O=C(Nc1ccc(N2CCN(Cc3ccccc3)CC2)cc1)c1cccs1 [MMV019670] | 59 | 1080 | EC50 (P. falciparum 3D7 [2]; [4]): 769 nM |
| Clc1ccc2c(N3CCCC3)ccnc2c1 [MMV007363] | 97 | 944 | EC50 (P. falciparum 3D7 [2]; [4]): 283 nM |
| COc1ccc(C2N(C)c3ccccc3N2C)cc1 [MMV666075] | 62 |  | EC50 (P. falciparum 3D7 [2]; source StJude): 15000 nM |
| O=C(Nc1ccc(C23CC4CC(CC(c5ccccc5)(C4)C2)C3)cc1)c1cccs1 [MMV007574] | 96 | 826 | EC50 (P. falciparum 3D7 [2]; source GNF (GNF-Pf ids)): 645 nM |
| COc1ccc(Nc2cc(C)nc(NCc3ccccc3)n2)cc1 [MMV006825] |  | 467 | EC50 (P. falciparum 3D7 [2]; [3]): 151 nM |
| CN(C)c1ccc(N=Cc2ccc(N3CCOCC3)cc2)cc1 [MMV073843] | 96 |  | EC50 (P. falciparum 3D7 [2]; [3]): 175 nM |
| O=C1c2ccc3c4c(ccc(c24)C(=O)N1CCCCO)C(=O)N(CCCCO)C3=O [MMV009085] | 97 | 795 | EC50 (P. falciparum 3D7 [2]; [3]): 354 nM |
| Cc1cc(Nc2cccc(F)c2)nc(NCc2ccccc2)n1 [MMV006319] |  | 662 | inhibition of growth at 2 µM (P. falciparum 3D7 [1]; Plasmodium falciparum): 97%; EC50 (P. falciparum 3D7 [2]; [4]): 72.2 nM |
| O=C(Nc1ccc(-c2nc3cc(NC(=O)c4ccc(Cl)cc4)ccc3[nH]2)cc1)c1ccc(Cl)cc1 [MMV006962] |  |  | inhibition at 1.25 µM (P. falciparum 3D7 [1]; Plasmodium falciparum, 3D7, read-out: % inh. At 1.25 uM): 48%; EC50 (P. falciparum 3D7 [2]; [3]): 993 nM |
| Oc1ccc2ccccc2c1CNc1nc2ccccc2[nH]1 [MMV011832] | 83 | 646 | EC50 (P. falciparum 3D7 [2]; [3]): 652 nM |
| Cc1ccc(-c2cc3nc4c(c(O)n3n2)CCCC4)cc1 [MMV006937] | 73 | 396 | EC50 (P. falciparum 3D7 [2]; source GNF (GNF-Pf id)): 1600 nM |
